Source: ChEMBL document CHEMBL4312009, “Multigram scale synthesis of polycyclic lactones and evaluation of antitumor and other biological properties” (Eur J Med Chem, 2020)

Tests used:
[1] = test system: GTPase KRas (Homo sapiens), P01116 [UNDEFINED MUTATION]; experiment: Inhibition of KRas mutant in human SW480 cells assessed as cell viability by measuring ATP at 2 uM relative to control; assay type: cell-based
[2] = test system: GTPase KRas (Homo sapiens), P01116 [UNDEFINED MUTATION]; experiment: Inhibition of KRas mutant in human DLD1 cells assessed as cell viability by measuring ATP at 0.2 uM relative to control; assay type: cell-based
[3] = test system: GTPase KRas (Homo sapiens), P01116 [UNDEFINED MUTATION]; experiment: Inhibition of KRas mutant in human DLD1 cells assessed as cell viability by measuring ATP at 20 uM relative to control; assay type: cell-based
[4] = test system: GTPase KRas (Homo sapiens), P01116 [UNDEFINED MUTATION]; experiment: Inhibition of KRas mutant in human HCT116 cells assessed as cell viability by measuring ATP at 20 uM relative to control; assay type: cell-based
HeLa [5] = experiment: Cell cycle arrest in human HeLa cells assessed as effect on G1 phase incubated for 21 hrs by propidium iodide based flow cytometry; assay type: functional
[6] = molecular target: Apolipoprotein C-III (Homo sapiens) (UniProt P02656); experiment: Inhibition of human APOC3 at 40 uM relative to control
Sequence of Apolipoprotein C-III (Homo sapiens) (P02656 whole entry): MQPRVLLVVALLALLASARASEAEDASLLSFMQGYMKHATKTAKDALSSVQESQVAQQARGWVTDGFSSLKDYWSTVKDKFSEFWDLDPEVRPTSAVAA

[7] = test system: GTPase KRas (Homo sapiens), P01116 [UNDEFINED MUTATION]; experiment: Inhibition of KRas mutant in human HCT116 cells […] assessed as cell viability by measuring ATP at 2 uM relative to control; assay type: cell-based
[8] = test system: GTPase KRas (Homo sapiens), P01116 [UNDEFINED MUTATION]; experiment: Inhibition of KRas mutant in human HCT116 cells assessed as cell viability by measuring ATP; assay type: cell-based
[9] = test system: GTPase KRas (Homo sapiens), P01116 [UNDEFINED MUTATION]; experiment: Inhibition of KRas mutant in human SW480 cells assessed as cell viability by measuring ATP; assay type: cell-based
[10] = test system: GTPase KRas (Homo sapiens), P01116 [UNDEFINED MUTATION]; experiment: Inhibition of KRas mutant in human HCT116 cells […] assessed as cell viability by measuring ATP; assay type: cell-based
[11] = test system: GTPase KRas (Homo sapiens), P01116 [UNDEFINED MUTATION]; experiment: Inhibition of KRas mutant in human SW480 cells assessed as cell viability by measuring ATP at 0.2 uM relative to control; assay type: cell-based
[12] = test system: GTPase KRas (Homo sapiens), P01116 [UNDEFINED MUTATION]; experiment: Inhibition of KRas mutant in human HCT116 cells […] assessed as cell viability by measuring ATP at 0.2 uM relative to control; assay type: cell-based
HeLa [13] = experiment: Cell cycle arrest in human HeLa cells assessed as effect on 4N stage incubated for 21 hrs by propidium iodide based flow cytometry; assay type: functional
HeLa [14] = experiment: Cell cycle arrest in human HeLa cells assessed as effect on 2N stage incubated for 21 hrs by propidium iodide based flow cytometry; assay type: functional
[15] = test system: GTPase KRas (Homo sapiens), P01116 [UNDEFINED MUTATION]; experiment: Inhibition of KRas mutant in human DLD1 cells assessed as cell viability by measuring ATP at 2 uM relative to control; assay type: cell-based
[16] = test system: GTPase KRas (Homo sapiens), P01116 [UNDEFINED MUTATION]; experiment: Inhibition of KRas mutant in human HCT116 cells […] assessed as cell viability by measuring ATP at 20 uM relative to control; assay type: cell-based
[17] = test system: GTPase KRas (Homo sapiens), P01116 [UNDEFINED MUTATION]; experiment: Inhibition of KRas mutant in human SW480 cells assessed as cell viability by measuring ATP at 20 uM relative to control; assay type: cell-based
[18] = Activation of wnt pathway in mouse C2C12 cells assessed as increase in alkaline phosphatase activity; assay type: cell-based
[19] = test system: GTPase KRas (Homo sapiens), P01116 [UNDEFINED MUTATION]; experiment: Inhibition of KRas mutant in human HCT116 cells assessed as cell viability by measuring ATP at 2 uM relative to control; assay type: cell-based
[20] = test system: GTPase KRas (Homo sapiens), P01116 [UNDEFINED MUTATION]; experiment: Inhibition of KRas mutant in human DLD1 cells assessed as cell viability by measuring ATP; assay type: cell-based
HeLa [21] = experiment: Cell cycle arrest in human HeLa cells assessed as effect on mitotic index incubated for 21 hrs by propidium iodide based flow cytometry; assay type: functional
[22] = molecular target: Microtubule-associated protein tau (Homo sapiens) (UniProt P10636); experiment: Inhibition of human Tau at 40 uM relative to control
Sequence of Microtubule-associated protein tau (Homo sapiens) (P10636 whole entry): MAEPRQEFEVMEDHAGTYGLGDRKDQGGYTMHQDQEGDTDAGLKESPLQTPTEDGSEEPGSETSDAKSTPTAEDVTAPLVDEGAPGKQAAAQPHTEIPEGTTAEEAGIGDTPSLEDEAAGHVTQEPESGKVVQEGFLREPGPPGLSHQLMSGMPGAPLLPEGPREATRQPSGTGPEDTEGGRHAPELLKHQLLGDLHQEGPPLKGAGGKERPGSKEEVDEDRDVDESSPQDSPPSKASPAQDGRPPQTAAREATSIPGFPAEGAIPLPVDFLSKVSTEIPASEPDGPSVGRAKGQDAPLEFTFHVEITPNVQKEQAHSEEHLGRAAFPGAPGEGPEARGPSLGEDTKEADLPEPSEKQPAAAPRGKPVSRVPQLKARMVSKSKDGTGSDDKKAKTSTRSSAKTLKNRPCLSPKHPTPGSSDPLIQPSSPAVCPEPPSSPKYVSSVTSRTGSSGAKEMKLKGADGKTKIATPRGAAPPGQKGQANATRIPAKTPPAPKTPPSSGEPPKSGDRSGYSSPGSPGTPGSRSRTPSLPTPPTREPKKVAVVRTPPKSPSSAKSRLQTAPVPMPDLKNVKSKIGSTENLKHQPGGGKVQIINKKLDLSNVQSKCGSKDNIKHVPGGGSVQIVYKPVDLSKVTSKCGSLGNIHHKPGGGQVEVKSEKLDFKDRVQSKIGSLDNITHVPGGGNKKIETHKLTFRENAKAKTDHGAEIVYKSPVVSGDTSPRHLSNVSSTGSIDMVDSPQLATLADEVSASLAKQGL

[23] = molecular target: Proprotein convertase subtilisin/kexin type 9 (Homo sapiens) (UniProt Q8NBP7); experiment: Inhibition of human PCSK9 at 40 uM relative to control
Sequence of Proprotein convertase subtilisin/kexin type 9 (Homo sapiens) (Q8NBP7 31-152 limits assumed): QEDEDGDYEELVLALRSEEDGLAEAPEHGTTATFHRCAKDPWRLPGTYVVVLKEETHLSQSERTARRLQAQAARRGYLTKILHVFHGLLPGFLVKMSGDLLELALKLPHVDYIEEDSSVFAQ
Sequence of Proprotein convertase subtilisin/kexin type 9 (Homo sapiens) (Q8NBP7 153-692 limits assumed): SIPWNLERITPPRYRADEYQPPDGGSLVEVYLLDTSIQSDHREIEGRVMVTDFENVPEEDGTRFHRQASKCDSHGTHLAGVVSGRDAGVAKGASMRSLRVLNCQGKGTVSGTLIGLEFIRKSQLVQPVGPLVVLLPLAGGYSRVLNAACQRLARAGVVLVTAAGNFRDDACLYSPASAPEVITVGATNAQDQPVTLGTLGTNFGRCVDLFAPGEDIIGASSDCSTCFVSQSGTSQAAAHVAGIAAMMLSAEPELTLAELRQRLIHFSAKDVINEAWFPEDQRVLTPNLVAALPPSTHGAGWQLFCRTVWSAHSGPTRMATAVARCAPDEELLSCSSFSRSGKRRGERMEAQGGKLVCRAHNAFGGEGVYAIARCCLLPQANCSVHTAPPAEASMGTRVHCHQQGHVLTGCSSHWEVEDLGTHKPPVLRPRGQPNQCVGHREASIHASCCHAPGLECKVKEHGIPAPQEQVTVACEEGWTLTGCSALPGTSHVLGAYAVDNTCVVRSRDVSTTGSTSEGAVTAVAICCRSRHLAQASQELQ

[24] = molecular target: T1, Angiopoietin-like protein 8 (Homo sapiens) (UniProt Q6UXH0); experiment: Inhibition of human Angptl8 at 40 uM relative to control
T1 sequence (whole entry): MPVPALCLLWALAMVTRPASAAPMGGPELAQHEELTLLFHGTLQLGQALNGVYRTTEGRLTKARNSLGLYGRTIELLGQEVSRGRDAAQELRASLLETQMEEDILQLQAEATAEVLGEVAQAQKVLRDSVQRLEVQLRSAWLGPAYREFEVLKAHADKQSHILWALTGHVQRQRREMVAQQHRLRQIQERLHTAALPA

[25] = test system: GTPase KRas (Homo sapiens), P01116 [UNDEFINED MUTATION]; experiment: Inhibition of KRas mutant in human HCT116 cells assessed as cell viability by measuring ATP at 0.2 uM relative to control; assay type: cell-based
[26] = molecular target: Sodium channel protein type 9 subunit alpha (Homo sapiens) (UniProt Q15858); experiment: Inhibition of human Nav1.7 at 40 uM relative to control
Sequence of Sodium channel protein type 9 subunit alpha (Homo sapiens) (Q15858 whole entry, looked up): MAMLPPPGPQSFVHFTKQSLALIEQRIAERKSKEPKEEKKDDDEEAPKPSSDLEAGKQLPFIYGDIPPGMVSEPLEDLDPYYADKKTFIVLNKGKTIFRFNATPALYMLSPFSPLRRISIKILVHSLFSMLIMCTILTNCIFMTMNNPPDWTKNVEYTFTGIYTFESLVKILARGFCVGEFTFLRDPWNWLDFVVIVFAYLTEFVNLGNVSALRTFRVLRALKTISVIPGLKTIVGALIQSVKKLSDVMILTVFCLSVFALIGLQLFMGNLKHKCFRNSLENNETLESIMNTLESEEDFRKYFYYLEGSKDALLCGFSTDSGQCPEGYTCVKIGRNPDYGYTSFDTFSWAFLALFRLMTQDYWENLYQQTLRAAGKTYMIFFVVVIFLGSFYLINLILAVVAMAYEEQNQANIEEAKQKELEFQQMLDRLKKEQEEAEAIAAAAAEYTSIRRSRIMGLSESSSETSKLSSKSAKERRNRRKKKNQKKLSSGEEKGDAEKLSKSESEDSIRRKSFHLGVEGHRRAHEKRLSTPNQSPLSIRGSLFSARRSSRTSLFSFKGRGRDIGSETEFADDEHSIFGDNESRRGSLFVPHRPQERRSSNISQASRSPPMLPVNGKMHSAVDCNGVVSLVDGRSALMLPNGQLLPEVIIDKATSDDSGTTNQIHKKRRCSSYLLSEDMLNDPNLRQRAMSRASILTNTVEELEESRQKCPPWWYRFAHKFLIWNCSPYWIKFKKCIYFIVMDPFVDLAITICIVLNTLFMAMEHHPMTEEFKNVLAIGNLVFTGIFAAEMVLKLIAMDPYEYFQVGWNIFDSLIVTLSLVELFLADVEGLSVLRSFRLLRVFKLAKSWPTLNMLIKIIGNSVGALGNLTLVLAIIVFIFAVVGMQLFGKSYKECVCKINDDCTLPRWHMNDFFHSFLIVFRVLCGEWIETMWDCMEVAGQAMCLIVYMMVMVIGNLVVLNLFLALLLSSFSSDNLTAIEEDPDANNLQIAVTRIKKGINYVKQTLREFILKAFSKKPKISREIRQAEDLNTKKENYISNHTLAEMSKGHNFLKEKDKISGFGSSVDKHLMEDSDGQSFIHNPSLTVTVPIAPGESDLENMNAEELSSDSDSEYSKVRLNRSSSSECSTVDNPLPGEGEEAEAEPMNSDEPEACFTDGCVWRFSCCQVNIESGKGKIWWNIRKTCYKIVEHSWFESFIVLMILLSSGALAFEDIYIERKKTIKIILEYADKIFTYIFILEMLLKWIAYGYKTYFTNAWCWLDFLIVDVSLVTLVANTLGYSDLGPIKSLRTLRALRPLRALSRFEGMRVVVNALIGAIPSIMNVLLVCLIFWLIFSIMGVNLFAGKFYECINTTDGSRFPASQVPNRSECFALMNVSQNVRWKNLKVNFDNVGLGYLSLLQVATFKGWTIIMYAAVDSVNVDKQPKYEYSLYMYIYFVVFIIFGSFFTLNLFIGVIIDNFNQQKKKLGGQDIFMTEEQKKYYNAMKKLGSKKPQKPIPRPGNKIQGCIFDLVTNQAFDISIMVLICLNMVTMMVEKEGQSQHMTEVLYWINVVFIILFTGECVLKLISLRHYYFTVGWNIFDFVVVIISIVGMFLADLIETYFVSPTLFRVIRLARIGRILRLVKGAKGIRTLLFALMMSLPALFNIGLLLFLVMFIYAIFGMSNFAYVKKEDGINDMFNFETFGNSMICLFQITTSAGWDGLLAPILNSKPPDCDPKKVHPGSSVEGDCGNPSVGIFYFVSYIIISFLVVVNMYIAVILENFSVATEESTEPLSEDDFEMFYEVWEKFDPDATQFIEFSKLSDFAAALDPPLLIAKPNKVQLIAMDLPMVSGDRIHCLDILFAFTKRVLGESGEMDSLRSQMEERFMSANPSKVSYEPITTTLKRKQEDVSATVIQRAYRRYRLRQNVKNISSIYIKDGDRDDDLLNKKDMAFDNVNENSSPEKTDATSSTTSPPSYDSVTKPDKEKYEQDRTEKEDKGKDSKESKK

HeLa [27] = experiment: Cell cycle arrest in human HeLa cells assessed as effect on S phase incubated for 21 hrs by propidium iodide based flow cytometry; assay type: functional
HeLa [28] = experiment: Cell cycle arrest in human HeLa cells incubated for 21 hrs by propidium iodide based flow cytometry; assay type: functional
[29] = Activation of wnt pathway in mouse C2C12 cells assessed as increase in beta-catenin activity; assay type: cell-based

Sequence of GTPase KRas (Homo sapiens), P01116 [UNDEFINED MUTATION] (P01116 whole entry, looked up, change not shown): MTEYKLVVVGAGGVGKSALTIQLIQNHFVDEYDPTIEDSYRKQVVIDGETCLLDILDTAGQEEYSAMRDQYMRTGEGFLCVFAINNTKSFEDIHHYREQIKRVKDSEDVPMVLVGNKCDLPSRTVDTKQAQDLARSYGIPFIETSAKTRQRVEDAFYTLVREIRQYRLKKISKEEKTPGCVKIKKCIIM

Structure (SMILES)	EC50 (HeLa [5]) [µM]	inhibition [6] [%]	EC50 (HeLa [13]) [nM]	IC50 (HeLa [14]) [nM]	inhibition [22] [%]	inhibition [23] [%]	inhibition [24] [%]	inhibition [26] [%]	inhibition [1] [%]	inhibition [2] [%]	inhibition [3] [%]	inhibition [4] [%]	inhibition [7] [%]	inhibition [11] [%]	inhibition [12] [%]	inhibition [15] [%]	inhibition [16] [%]	inhibition [17] [%]	inhibition [19] [%]	inhibition [25] [%]	further results
CCCCCc1c2c(c(C)c3c1Oc1ccccc1O3)C(=O)OC2	–	–	–	–	–	–	–	–	21	–	40	35	28	11	44	17	31	40	12	-9	–
CCCCCCc1c2c(c(C)c3c1Oc1ccccc1O3)C(=O)SC2	–	7	–	–	30	-4	27	-2	10	-10	14	13	-5.6	10	–	6	3.4	21	2.9	-10	–
CCCCCc1c2c(c(C)c3c1C(=O)OC3)Oc1ccc(OC)cc1O2	> 10	38	> 10000	> 10000	60	42	59	22	16	–	73	40	8	15	52	16	6	19	7.9	–	EC50 [29]: > 10 µM; EC50 [18]: > 10 µM; EC50 (HeLa [21]): > 10000 nM; IC50 (HeLa [27]): > 10 µM

Further lines, with some results ahead:

EC50 (HeLa [5]) [µM]	inhibition [6] [%]	EC50 (HeLa [13]) [nM]	IC50 (HeLa [14]) [nM]	inhibition [22] [%]	inhibition [23] [%]	inhibition [24] [%]	inhibition [26] [%]	Structure (SMILES)	inhibition [1] [%]	inhibition [2] [%]	inhibition [3] [%]	inhibition [4] [%]	inhibition [7] [%]	inhibition [11] [%]	inhibition [12] [%]	inhibition [15] [%]	inhibition [16] [%]	inhibition [17] [%]	inhibition [19] [%]	inhibition [25] [%]	further results
> 10	78	1600	1800	88	69	89	74	CCCCCc1c2c(c(C)c3c1C(=O)OC3)Oc1ccccc1O2	64	60	120	89	59	20	5	63	66	86	62	20	inhibition [8]: Dose-dependent effect; inhibition [9]: Dose-dependent effect; inhibition [10]: Dose-dependent effect; EC50 [18]: 6.3 µM; inhibition [20]: Dose-dependent effect; EC50 (HeLa [21]): 1400 nM; IC50 (HeLa [27]): > 10 µM; IC50 (HeLa [28]): 1000 nM
–	17	–	–	11	-7	24	-9	CCCCCCc1c2c(c(C)c3c1Oc1ccccc1O3)C(=O)OC2	18	29	–	15	10	16	26	49	2	12	7	-3	–
–	17	–	–	35	40	37	–	Cc1c2c(c(CCCCBr)c3c1C(=O)OC3)Oc1ccccc1O2	4.4	0.4	20	108	20	–	12	0.4	28	55	9.5	2	–
> 10	67	1400	1500	56	35	67	0	Cc1c2c(c(CCCCBr)c3c1Oc1ccccc1O3)C(=O)OC2	62	30	76	76	58	7	15	45	53	63	56	33	inhibition [8]: Dose-dependent effect; inhibition [9]: Dose-dependent effect; inhibition [10]: Dose-dependent effect; EC50 [29]: > 20 µM; EC50 [18]: 8.2 µM; inhibition [20]: Dose-dependent effect; EC50 (HeLa [21]): 1300 nM; IC50 (HeLa [27]): > 10 µM; IC50 (HeLa [28]): 600 nM
